Assay results: US8206732B2, “Pyrithione biocides enhanced by silver, copper, or zinc ions” (Arch Chemicals, Inc., priority 1999, dated 2012)
“And” between values parts separate entries of the source, which are not always exact repeats. Identical values can stand only once.

Experiments:
[1] = test system: Pseudomonas aeruginosa 9027; assay: Checkerboard MIC test, pyrithiones with silver salts; format: cell-based; settings: NaPT alone or in the inhibitory mixture with silver salt; TSB pH 7.3, 35° C., 1 to 2 days
[2] = test system: Escherichia coli ATCC 10536; assay: Zone of inhibition test (paper disc on TSA); format: cell-based; settings: 6.5 mm discs; 0.135% pyrithione, 0.1% ZnCl2 or both; 28° C., 24 hr
[3] = test system: Pseudomonas aeruginosa NCIMB 6749; assay: Checkerboard MIC test, pyrithiones with zinc salts; format: cell-based; settings: pyrithione alone or pyrithione concentration in the inhibitory mixture; TSB, 28 C, 3 days
[4] = test system: E. coli 8739 free-living cells; assay: Viable free-living cells in bulk metalworking fluid (Example 5); format: cell-based, Escherichia coli; settings: 100 PPM NaPT, 10 PPM Zn (II) or both, 4 days after treatment
[5] = test system: Fusarium sp. and Cephalosporium sp.; assay: Various mixtures of NaPT and Zn(II) against fungi in 5% metalworking fluid (Example 8, Table 10b); format: cell-based
[6] = test system: mixed bacteria (Pseudomonas aeruginosa 9027, Escherichia coli 8739, Pseudomonas fluorescens 12201, Pseudomonas rubescens 12202, Pseudomonas putida); assay: Various mixtures of NaPT and Zn(II) against bacteria in 5% metalworking fluid (Example 8, Table 10a); format: cell-based, Pseudomonas spp.
Escherichia coli 10536 = assay: Checkerboard MIC test, pyrithiones with silver salts; format: cell-based; settings: NaPT alone or in the inhibitory mixture with silver salt; TSB pH 7.3, 35° C., 1 to 2 days
[7] = test system: Pseudomonas aeruginosa ATCC 9027; assay: MIC in Tryptic Soy Broth, microtiter (Example 1); format: cell-based; settings: 28° C.
[8] = test system: P. aeruginosa 9027 free-living cells; assay: Viable free-living cells in bulk metalworking fluid (Example 5); format: cell-based, Pseudomonas aeruginosa; settings: 100 PPM NaPT; for viable free-living cells in the bulk fluid: 5% soluble oil MWF, 2.5 PPM Zn(II) or both, 4 days
Fusarium sp. = assay: Checkerboard MIC test, pyrithiones with zinc salts; format: cell-based; settings: pyrithione alone or pyrithione concentration in the inhibitory mixture; TSB, 28 C, 5 days
Experimental: Mixtures of pyrithione and zinc or silver in various proportions were tested for relative efficacy by a modification of the procedure described by Dougherty, et al.
Equal volumes of bacteria (10^6 cells/ml) or fungi (10^5 spores/ml) were added to each microtiter plate well. The plates were incubated at 28 C for 3 days (bacteria) or 5 days (fungi), and the minimum inhibitory concentration (MIC) of biocide was determined. The Fractional Inhibitory Concentration (FIC=concentration of biocide in an inhibitory mixture divided by the MIC of the pure biocide) was determined, and the FIC Index (sum of the two FIC's) was calculated. The type of interaction was categorized according to the magnitude of the Index: Synergistic (<1), Additive (1), or Antagonistic (>1).

[9] = test system: Staphylococcus aureus ATCC 27217; assay: Zone of inhibition test (paper disc on TSA); format: cell-based; settings: 6.5 mm discs; 0.135% pyrithione, 0.1% ZnCl2 or both; 28° C., 24 hr
[10] = test system: Staphylococcus aureus ATCC 27217; assay: Checkerboard MIC test, pyrithiones with zinc salts; format: cell-based; settings: pyrithione alone or pyrithione concentration in the inhibitory mixture; TSB, 28 C, 3 days
[11] = test system: Aspergillus niger ATCC 6275; assay: MIC in Tryptic Soy Broth, microtiter (Example 1); format: cell-based; settings: 28° C.
[12] = test system: Staphylococcus aureus 27217; assay: Checkerboard MIC test, pyrithiones with silver salts; format: cell-based; settings: NaPT alone or in the inhibitory mixture with silver salt; TSB pH 7.3, 35° C., 1 to 2 days
Candida albicans 10251 = assay: as above; format: cell-based; settings: NaPT alone or in the inhibitory mixture with silver salt; TSB pH 7.3, 35° C., 1 to 2 days
Cephalosporium sp. = assay: MIC in Tryptic Soy Broth, microtiter (Example 1); format: cell-based; settings: 28° C.
E. coli 8739 biofilm = assay: Viable biofilm cells on discs in metalworking fluid (Example 5); format: cell-based, Escherichia coli; settings: polycarbonate disc, 100 PPM NaPT, 10 PPM Zn (II) or both, 4 days after treatment
[13] = semi-synthetic, NaPT 100 PPM, Day 1
[14] = semi-synthetic, NaPT 100 PPM, Day 1, tube of the Day 1/Day 4 series
[15] = semi-synthetic, NaPT 100 PPM, Day 2
[16] = semi-synthetic, NaPT 100 PPM, Day 4
[17] = semi-synthetic, NaPT 100 PPM, Day 7
[18] = semi-synthetic, NaPT 300 PPM, Day 1
[19] = semi-synthetic, NaPT 300 PPM, Day 2
[20] = semi-synthetic, NaPT 300 PPM, Day 7
[21] = semi-synthetic, NaPT 500 PPM, Day 2
[22] = semi-synthetic, NaPT 500 PPM, Day 7
[23] = soluble oil, NaPT 100 PPM, Day 1
[24] = soluble oil, NaPT 100 PPM, Day 1, tube of the Day 1/Day 4 series
[25] = soluble oil, NaPT 100 PPM, Day 2
[26] = soluble oil, NaPT 100 PPM, Day 4
[27] = soluble oil, NaPT 100 PPM, Day 7
[28] = soluble oil, NaPT 300 PPM, Day 1
[29] = soluble oil, NaPT 300 PPM, Day 2
[30] = soluble oil, NaPT 300 PPM, Day 7
[31] = soluble oil, NaPT 500 PPM, Day 2
[32] = soluble oil, NaPT 500 PPM, Day 7
[33] = synthetic, NaPT 100 PPM, Day 1, tube of the Day 1/Day 4 series

Structure (SMILES): [Na+].[O-][n+]1ccccc1[S-] [NaPT, sodium pyrithione]
- MIC NaPT [1]: 256 ppm
- Zone of Inhibition [2]: 35 mm
- MIC Pyrithione [3]: 128 ppm
- viable free-living microorganisms ([4]; 5% solub. oil MWF): 5.3 × 10^7 cells/ml
- viable free-living microorganisms ([4]; 10% TSB): 9.1 × 10^8 cells/ml
- Fungi/ml [5, 13]: 1.1 × 10^4 Fungi/ml
- Fungi/ml [5, 14]: 2.0 × 10^4 Fungi/ml
- Fungi/ml [5, 15]: 1.3 × 10^3 Fungi/ml
- Fungi/ml [5, 16]: 1.0 × 10^4 Fungi/ml
- Fungi/ml [5, 17]: 0 Fungi/ml
- Fungi/ml [5, 18]: 3.0 × 10^3 Fungi/ml
- Fungi/ml [5, 19]: 570 Fungi/ml
- Fungi/ml [5, 20]: 0 Fungi/ml
- Fungi/ml ([5]; semi-synthetic, NaPT 500 PPM, Day 1): 9.0 × 10^3 Fungi/ml
- Fungi/ml [5, 21]: 300 Fungi/ml
- Fungi/ml [5, 22]: 0 Fungi/ml
- Fungi/ml [5, 23]: 3.2 × 10^4 Fungi/ml
- Fungi/ml [5, 24]: 3.6 × 10^4 Fungi/ml
- Fungi/ml [5, 25]: 2.9 × 10^4 Fungi/ml
- Fungi/ml [5, 26]: 2.9 × 10^4 Fungi/ml
- Fungi/ml [5, 27]: 1.5 × 10^4 Fungi/ml
- Fungi/ml [5, 28]: 1.7 × 10^4 Fungi/ml
- Fungi/ml [5, 29]: 1.0 × 10^4 Fungi/ml
- Fungi/ml [5, 30]: 560 Fungi/ml
- Fungi/ml ([5]; soluble oil, NaPT 500 PPM, Day 1): 1.9 × 10^4 Fungi/ml
- Fungi/ml [5, 31]: 2.8 × 10^4 Fungi/ml
- Fungi/ml [5, 32]: 610 Fungi/ml
- Fungi/ml ([5]; synthetic, NaPT 100 PPM, Day 1): 3.0 × 10^4 Fungi/ml
- Fungi/ml [5, 33]: 9.0 × 10^3 Fungi/ml
- Fungi/ml ([5]; synthetic, NaPT 100 PPM, Day 2): 2.0 × 10^3 Fungi/ml
- Fungi/ml ([5]; synthetic, NaPT 100 PPM, Day 4): 5.0 × 10^3 Fungi/ml
- Fungi/ml ([5]; synthetic, NaPT 100 PPM, Day 7): 2.0 × 10^3 Fungi/ml
- Fungi/ml ([5]; synthetic, NaPT 300 PPM, Day 1): 2.9 × 10^4 Fungi/ml
- Fungi/ml ([5]; synthetic, NaPT 300 PPM, Day 2): 2.1 × 10^4 Fungi/ml
- Fungi/ml ([5]; synthetic, NaPT 300 PPM, Day 7): 1.2 × 10^4 Fungi/ml
- Fungi/ml ([5]; synthetic, NaPT 500 PPM, Day 1): 2.7 × 10^4 Fungi/ml
- Fungi/ml ([5]; synthetic, NaPT 500 PPM, Day 2): 4.0 × 10^3 Fungi/ml
- Fungi/ml ([5]; synthetic, NaPT 500 PPM, Day 7): 3.0 × 10^3 Fungi/ml
- Bacteria/ml [6, 13]: 1.8 × 10^5 Bacteria/ml
- Bacteria/ml [6, 14]: 1.7 × 10^4 Bacteria/ml
- Bacteria/ml [6, 15]: 1.9 × 10^5 Bacteria/ml
- Bacteria/ml [6, 16]: 1.2 × 10^4 Bacteria/ml
- Bacteria/ml [6, 17]: 510 Bacteria/ml
- Bacteria/ml [6, 18]: 1.2 × 10^5 Bacteria/ml
- Bacteria/ml [6, 19]: 0 Bacteria/ml
- Bacteria/ml [6, 20]: 0 Bacteria/ml
- Bacteria/ml [6, 21]: 0 Bacteria/ml
- Bacteria/ml [6, 22]: 0 Bacteria/ml
- Bacteria/ml [6, 23]: 2.4 × 10^5 Bacteria/ml
- Bacteria/ml [6, 24]: 5.9 × 10^6 Bacteria/ml
- Bacteria/ml [6, 25]: 6.0 × 10^3 Bacteria/ml
- Bacteria/ml [6, 26]: 1.5 × 10^6 Bacteria/ml
- Bacteria/ml [6, 27]: 2.0 × 10^4 Bacteria/ml
- Bacteria/ml [6, 28]: 7.1 × 10^4 Bacteria/ml
- Bacteria/ml [6, 29]: 9.0 × 10^3 Bacteria/ml
- Bacteria/ml [6, 30]: 0 Bacteria/ml
- Bacteria/ml [6, 31]: 450 Bacteria/ml
- Bacteria/ml [6, 32]: 0 Bacteria/ml
- Bacteria/ml ([6]; synthetic, NaPT 100 PPM, Day 1): 2.9 × 10^6 Bacteria/ml
- Bacteria/ml [6, 33]: 2.1 × 10^6 Bacteria/ml
- Bacteria/ml ([6]; synthetic, NaPT 100 PPM, Day 2): 1.7 × 10^5 Bacteria/ml
- Bacteria/ml ([6]; synthetic, NaPT 100 PPM, Day 4): 2.0 × 10^5 Bacteria/ml
- Bacteria/ml ([6]; synthetic, NaPT 100 PPM, Day 7): 1.5 × 10^4 Bacteria/ml
- Bacteria/ml ([6]; synthetic, NaPT 300 PPM, Day 1): 5.0 × 10^4 Bacteria/ml
- Bacteria/ml ([6]; synthetic, NaPT 300 PPM, Day 2): 4.0 × 10^3 Bacteria/ml
- Bacteria/ml ([6]; synthetic, NaPT 300 PPM, Day 7): 0 Bacteria/ml
- Bacteria/ml ([6]; synthetic, NaPT 500 PPM, Day 1): 1.2 × 10^5 Bacteria/ml
- Bacteria/ml ([6]; synthetic, NaPT 500 PPM, Day 2): 1.0 × 10^3 Bacteria/ml
- Bacteria/ml ([6]; synthetic, NaPT 500 PPM, Day 7): 50 Bacteria/ml
- MIC NaPT (Escherichia coli 10536): 16 ppm
- MIC NaPT (with 0.5 ppm Cu) ([7]; TSB with 0.5 ppm Cu (II), 5-6 days): 256 ppm
- MIC ([7]; TSB, incubated 5-6 days, single agent (NaPT without Cu)): 256 ppm
- viable free-living cells in the bulk fluid ([8]; tube with Polycarbonate surface): 4.9 × 10^5 cells/ml
- viable free-living cells in the bulk fluid ([8]; tube with Rubber surface): 50 cells/ml
- viable free-living cells in the bulk fluid ([8]; tube with Steel surface): 3.5 × 10^6 cells/ml
- viable free-living microorganisms ([8]; 5% synthetic MWF, 10 PPM Zn (II) or both, 4 days after treatment): 7.8 × 10^6 cells/ml and 7.0 × 10^5 cells/ml and 5.4 × 10^5 cells/ml
- MIC Pyrithione (Fusarium sp.): 411 ppm
- Zone of Inhibition [9]: 31 mm
- MIC Pyrithione [10]: 4 ppm
- MIC NaPT (with 0.5 ppm Cu) ([11]; TSB with 0.5 ppm Cu (II), 7-8 days): 8 ppm
- MIC ([11]; TSB, incubated 7-8 days, single agent (NaPT without Cu)): 128 ppm
- MIC NaPT [12]: 4 ppm and 8 ppm
- MIC NaPT (Candida albicans 10251): 16 ppm
- MIC NaPT (with 0.5 ppm Cu) (Cephalosporium sp.; TSB with 0.5 ppm Cu (II), 5 days): 16 ppm
- MIC (Cephalosporium sp.; TSB, incubated 5 days, single agent (NaPT without Cu)): 64 ppm
- viable biofilm microorganisms (E. coli 8739 biofilm; 5% solub. oil MWF): 1.6 × 10^5 cells/cm^2
- viable biofilm microorganisms (E. coli 8739 biofilm; 10% TSB): 1.4 × 10^6 cells/cm^2
